molecular target: T1, E. coli DdlB enzyme (D-alanine:D-alanine ligase) (Escherichia coli, UniProt P07862); test: biochemical; conditions: fragment library screening; tested concentration 1.8 mM; read-out: DdlB RA
T1 construct: made in house; host or cells: E. coli

SMILES | remaining activity at 1800 µM
CCNc1cc(N2CCC(CCC(=O)O)CC2)ncn1 [Compound P207-8919] | 83%

same assay, conditions: fragment library screening; tested concentration 1.9 mM; read-out: DdlB RA

SMILES | remaining activity at 1900 µM
CCc1nc(NCc2ccncc2)ncc1C(=O)O [Compound S272-1779] | 93%

same assay, conditions: fragment library screening; tested concentration 2.0 mM; read-out: DdlB RA

SMILES | remaining activity at 2000 µM
O=C(O)c1ccccc1C(=O)NCc1ccccc1 [Compound K786-0839] | 98%

same assay, conditions: residual activity of DdlB, fragment library screening, tested concentration 2.6 mM; read-out: DdlB RA

SMILES | remaining activity at 2600 µM
NCCc1noc(C2CC2)n1 [Compound S399-0482] | 95%

same assay, conditions: residual activity of DdlB, fragment library screening, tested concentration 2.9 mM; read-out: DdlB RA

SMILES | remaining activity at 2900 µM
COCc1cn(C2CNC2)nn1 [Compound S727-0003] | 7.54%

same assay, conditions: residual activity of DdlB, fragment library screening, tested concentration 3.0 mM; read-out: DdlB RA

SMILES | remaining activity at 3000 µM
Cn1nc(C(=O)O)c2c1CCOC2 [Compound P207-8979] | 88%
O=C(Nc1nnc[nH]1)C1CCC1 [Compound P774-4606] | 94%
CN(CC1CCOC1)C(=O)C1CC1 (stereo not shown) [Compound S213-1842] | 91%

same assay, conditions: residual activity of DdlB, fragment library screening, tested concentration 3.3 mM; read-out: DdlB RA

SMILES | remaining activity at 3300 µM
CCn1cnnc1CC1CCNC1 (stereo not shown) [Compound P936-0678] | 90%
CCOc1ncccc1CN [Compound S055-1650] | 89%

same assay, conditions: residual activity; tested concentration 1.7 mM; read-out: DdlB RA

SMILES | remaining activity at 1700 µM
Cc1nnc(C2CCCCN2C(=O)NC2CCCCC2)[nH]1 (stereo not shown) [Compound M754-0764] | 77%
O=C(c1ccco1)N1CCCCC1c1nnc(C2CC2)[nH]1 (stereo not shown) [Compound M754-1192] | 90%
Cc1ccccc1NS(=O)(=O)c1c[nH]c2ncccc12 [Compound P633-0038] | 89%
Cc1ccc(CNC(=O)C2Cn3cccc3C(=O)N2C)o1 (stereo not shown) [Compound S531-0187] | 92%
CCc1ccc(C(=O)N2CCC(C3CCNC3)CC2)cc1 (stereo not shown) [Compound S632-2763] | 69%

same assay, conditions: residual activity; tested concentration 1.8 mM; read-out: DdlB RA

SMILES | remaining activity at 1800 µM
Cc1cccc(C(=O)N2CCCCC2c2nnc(C)[nH]2)c1 (stereo not shown) [Compound M754-0809] | 89%

same assay, conditions: residual activity; tested concentration 1.9 mM; read-out: DdlB RA

SMILES | remaining activity at 1900 µM
COc1ccc(CNc2ccccc2C(=O)O)cc1 [Compound K783-0843] | 101%
O=C(O)c1ccccc1NCc1ccccc1Cl [Compound K783-0963] | 95%
O=C(Cc1c[nH]c2ncccc12)NCc1ccccc1 [Compound M508-0504] | 82%
CCNC(=O)N1CCC(c2noc(-c3ccccc3)n2)C1 (stereo not shown) [Compound S069-0392] | 94%
COc1cccc(CNC(=O)C2CCCCC(=O)N2C)c1 (stereo not shown) [Compound S513-0092] | 97%

same assay, conditions: residual activity; tested concentration 2.0 mM; read-out: DdlB RA

SMILES | remaining activity at 2000 µM
Cc1ccc(S(=O)(=O)N2CCc3[nH]cnc3C2)cc1 [Compound M512-0400] | 94%
CCn1cc(S(=O)(=O)NC2CCCC2)c2cccnc21 [Compound P633-0557F] | 89%
O=C(C1CCCN(C(=O)C2CCC2)C1)N1CCOCC1 (stereo not shown) [Compound P773-6398] | 98%
CCCNC(=O)N1CCC2(CCC(=O)N(C)CC2)CC1 [Compound S509-1557] | 98%

same assay, conditions: residual activity; tested concentration 2.1 mM; read-out: DdlB RA

SMILES | remaining activity at 2100 µM
O=C(O)C1=CC(c2cc(F)cc(F)c2)n2nnnc2N1 (stereo not shown) [Compound J043-0061] | 101%
CC(=O)N1CCCC(c2nn(C)c(=O)n2C2CCCC2)C1 (stereo not shown) [Compound P940-4223] | 96%
O=C(O)c1cc(-c2ccc3c(c2)OCO3)on1 [Compound R314-0020] | 114%
Cc1ccc(F)cc1S(=O)(=O)N(C)CC1CCOC1 (stereo not shown) [Compound S213-1645] | 102%
Cc1cc(C)cc(NC(=O)N(C)CC2CCOC2)c1 (stereo not shown) [Compound S213-1693] | 96%
CC(C(=O)NCc1cc(F)cc(F)c1)C1CCOCC1 (stereo not shown) [Compound S424-0231] | 92%
CCC(=O)N1CCC(c2nc(C3CCOCC3)no2)C1 (stereo not shown) [Compound S428-0464] | 95%
CCC1(C(=O)NC2CCCCCC2)CCCCC(=O)N1 (stereo not shown) [Compound S515-0307] | 99%
O=C1CCC2(CNC(=O)C3CCOCC3)CCCC=C2N1 (stereo not shown) [Compound S570-0163] | 94%
Cc1noc(C)c1C(=O)NCC1Cn2cccc2CN1C (stereo not shown) [Compound S590-0019] | 45%
Cc1ncoc1C(=O)N1CCCC(n2c(C)cnc2C)C1 (stereo not shown) [Compound S692-1464] | 96%
Cc1noc(C)c1S(=O)(=O)N1CC(n2ccnc2)C1 [Compound S695-2555] | 97%

same assay, conditions: residual activity; tested concentration 2.2 mM; read-out: DdlB RA

SMILES | remaining activity at 2200 µM
CC(C)CNC(=O)Cc1c[nH]c2ncccc12 [Compound M508-0619] | 94%
CCCN(C)C(=O)Cc1c[nH]c2ncccc12 [Compound M508-0627] | 86%
O=C(NCc1c[nH]c2ncccc12)C1CCC1 [Compound P610-0073] | 90%

— publication PMC9718554, “Discovery of a fragment hit compound targeting D-Ala:D-Ala ligase of bacterial peptidoglycan biosynthesis” (Journal of Enzyme Inhibition and Medicinal Chemistry, 2022)
